Test results as given in US20020065259A1, “Glucocorticoid blocking agents for increasing blood-brain barrier permeability” (priority 2000, published 2002).
Read-outs that look alike come from different tables or passages of the source.

What was measured:
BBB permeability [1] = details: adrenalectomized rats with vehicle (placebo) pellets; haloperidol 1 mg/kg s.c. or clozapine 15 mg/kg s.c., 2 h before sacrifice
BBB permeability [2] = assay: Example 2: mifepristone pellet in rats, brain haloperidol and clozapine levels and brain dopamine metabolites; format: in vivo
Experimental: Rats (male Sprague Dawley 175-200 grams) are maintained, 3 rats per cage, under controlled temperature and lighting (12 hours light/12 hours dark) with food and water ad libitum. […] Two hours prior to sacrifice the animals are injected with either haloperidol (1 mg/kg s.c; RBI Natick, Mass.) or an equivalent volume of vehicle (0.3% tartaric acid, pH 5.3) or with either clozapine (15 mg/kg s.c.; RBI, Natick, Mass.) or vehicle (0.9% saline plus 0.8% acetic acid). Animal sacrifice is by decapitation during the first four hours of the light cycle. Blood is collected and brains removed and frozen on dry ice for storage at −80° C. Frozen brains are sliced into 250 μm sections with a cryostat. The medial prefrontal cortex (AP 13.7 to 12.2 mm) is dissected with a scalpel, the striatum (AP 10.7 to 9.7 mm) is removed with stainless steel cannulae from frozen slices and the core and shell of the nucleus accumbens (AP 10.7 to 9.7 mm) is removed. Brain regions are dissected within 24-72 hours of slicing. […] Dopamine metabolites homovanillic acid (HVA) and dihydroxyphenylacetic acid (DOPAC) are measured in the brains of the experimental animals. […] Tissue pellets are dissolved in 1.0 N NaOH for protein determination (BioRad, Richmond, Calif.). Cortical supernatants are filtered through a 0.45 μm filter and 5-80 μl of supernatant is injected directly onto a C18 reverse phase analytical column (5 μm, 250×4.6 mm; Biophase ODS, BAS, West Lafayette, Ind.) protected by a precolumn cartridge (5 μm, 30×4.6 mm, BAS) as described with modification (Lindley et al. Proc. Soc. Exp. Biol. Med. 188:282-286 (1988)). DOPAC and HVA were detected using an electrochemical detector. For cortical regions, the conditioning electrode is set at +0.35 V and the dual analytical electrode is set at +0.02 V and −0.35 V, respectively (ESA, Bedford, Mass.). For other regions a single analytical electrode set at +0.72 V is used (BAS, West Lafayette, Ind.). Brain clozapine levels are analyzed by National Medical Services, Inc. (Willow Grove, PN) while brain and plasma haloperidol and reduced haloperidol and plasma clozapine levels are analyzed by Analytical Psychopharmacology Laboratories (Nathan Kline Institute, Orangeburg, N.Y.), both by gas chromatography.

BBB permeability [3] = assay: Example 4: mifepristone pellet in rats, delivery of ampicillin to brain; format: in vivo; details: mifepristone 200 mg 10-day sustained release pellet, ampicillin 1.5 mg i.v. 2 h before sacrifice
Experimental: Animal sacrifice is by decapitation during the first four hours of the light cycle. Blood is collected and brains removed and frozen on dry ice for storage at −80° C. Ampicillin concentration is measured in the brains of the experimental animals.

BBB permeability [4] = assay: Example 3: mifepristone pellet in rats, delivery of Amphotericin B to brain; format: in vivo; details: mifepristone 200 mg 10-day sustained release pellet, Amphotericin B 0.1 mg i.v. 2 h before sacrifice
Experimental: Rats (male Sprague Dawley 175-200 grams) are maintained, 3 rats per cage, under controlled temperature and lighting (12 hours light/12 hours dark) with food and water ad libitum. […] Two hours prior to sacrifice the animals are injected with either Amphotericin B (0.1 mg i.v.; Sigma Chemical Co., (800) 325-3010) or an equivalent volume of vehicle (0.1% DMSO in saline, pH 11). Animal sacrifice is by decapitation during the first four hours of the light cycle. Blood is collected and brains removed and frozen on dry ice for storage at −80° C. Amphotericin B concentration is measured in the brains of the experimental animals. The Amphotericin B concentration is greater in the brains of mifepristone-treated animals than in placebo-treated animals.

BBB permeability [5] = assay: Example 6: mifepristone s.c. injection in rats, delivery of adriamycin to brain; format: in vivo; details: mifepristone 2 mg s.c. 4 h before sacrifice, adriamycin 0.5 mg i.v. 2 h before sacrifice
Experimental: Animal sacrifice is by decapitation during the first four hours of the light cycle. Blood is collected and brains removed and frozen on dry ice for storage at −80° C. Adriamycin concentration is measured in the brains of the experimental animals.

BBB permeability [6] = assay: Example 5: mifepristone pellet in rats, delivery of methotrexate to brain; format: in vivo; details: mifepristone 200 mg 10 day sustained-release pellet, methotrexate 0.5 mg i.v. 2 h before sacrifice
Experimental: Rats (male Sprague Dawley 175-200 grams) are maintained, 3 rats per cage, under controlled temperature and lighting (12 hours light/12 hours dark) with food and water ad libitum. […] Two hours prior to sacrifice the animals are injected with either methotrexate (0.5 mg i.v; Sigma Chemical Co., (800)325-3010) or an equivalent volume of vehicle (saline, pH 9). Animal sacrifice is by decapitation during the first four hours of the light cycle. Blood is collected and brains removed and frozen on dry ice for storage at −80° C. Methotrexate concentration is measured in the brains of the experimental animals. The methotrexate concentration is greater in the brains of mifepristone-treated animals than in placebo-treated animals.

[7] = rats, mifepristone 200 mg 10-day sustained-release pellet, clozapine 15 mg/kg s.c.
[8] = rats, mifepristone 200 mg 10-day sustained-release pellet, haloperidol 1 mg/kg s.c.

| brain concentration of clozapine, mifepristone-treated vs placebo (BBB permeability [2]; [7]) | brain concentration of haloperidol, mifepristone-treated vs placebo (BBB permeability [2]; [8]) | ampicillin concentration in the brain, mifepristone-treated vs placebo (BBB permeability [3]) | Amphotericin B concentration in the brain, mifepristone-treated vs placebo (BBB permeability [4]) | adriamycin concentration in the brain, mifepristone-treated vs placebo (BBB permeability [5]) | methotrexate concentration in the brain, mifepristone-treated vs placebo (BBB permeability [6]) | SMILES | measured levels of HVA and DOPAC in the brain (BBB permeability [1]) | measured levels of HVA and DOPAC in the brain (BBB permeability [2]; rats with placebo pellet, haloperidol 1 mg/kg s.c. or clozapine 15 mg/kg s.c., 2 h before sacrifice) | increase in dopamine metabolite levels following clozapine treatment, mifepristone-treated vs placebo (BBB permeability [2]; [7]) | increase in dopamine metabolite levels following haloperidol treatment, mifepristone-treated vs placebo (BBB permeability [2]; [8]) |
| --- | --- | --- | --- | --- | --- | --- | --- | --- | --- | --- |
|  |  |  |  |  |  | O=C(CCCN1CCC(O)(c2ccc(Cl)cc2)CC1)c1ccc(F)cc1 [haloperidol] | elevated | elevated |  |  |
| greater | greater | greater | greater | greater | greater | CC#C[C@]1(O)CC[C@H]2[C@@H]3CCC4=CC(=O)CCC4=C3[C@@H](c3ccc(N(C)C)cc3)C[C@@]21C [mifepristone, (11β,17β)-11-[4-(dimethylamino)phenyl]-17-hydroxy-17-(1-propynyl)estra-4,9-dien-3-one] |  |  | greater | greater |
